Where a SMILES comes first, the peptide text is derived from it.
What was measured:
[1] = tested on: primary mouse cardiac fibroblasts; experiment: Cellular uptake by flow cytometry, cardiac fibroblasts; assay type: cell-based; conditions: FITC-labeled peptide 0.24 µg/mL, 4 h, mean ± SD, n = 4
Procedure: Cellular uptake of L-Ac-SDKP was assessed in mouse cardiac fibroblasts and macrophages. Briefly, cultured macrophages (RAW 264.7 cells, ATCC) and primary mouse cardiac fibroblasts were incubated with L-Ac-SDKP or free peptides (Ac-SDKP) at a concentration of 0.24 µg/mL. For the intracellular distribution assay, cells were cultured on sterile coverslips, incubated with Ac-SDKP or L-Ac-SDKP for 4 h, fixed with 4% paraformaldehyde, mounted, and imaged using a fluorescence microscope (Zeiss LSM 800 laser scanning microscope) at ×400 magnification. For quantification of the peptide uptake, cells were detached and examined with a BD Accuri C6-Plus flow cytometer and further analyzed by FCS Express 6-De Novo software, […].

[2] = tested on: human cardiac fibroblasts; experiment: MTT cell viability assay, cardiac fibroblasts; assay type: cell-based; conditions: 0.24 µg/mL, 24 h, n = 7-8
Procedure: To access cell viability and proliferation in response to the liposome-peptide, Thiazolyl Blue Tetrazolium Bromide (MTT; Sigma-Aldrich, M2128) assay was performed. Briefly, human cardiac fibroblasts (Lifeline Cell Technology, San Diego, CA, USA #FC-0060) and RAW macrophages were plated into 96-well plates at a density of 8000–10,000 cells/well. After 24 h, cells were serum-starved overnight, followed by incubation in empty liposomes and PBS (L-PBS), L-Ac-SDKP (0.24 µg/mL), or Ac-SDKP (0.24 µg/mL) for an additional 24 h. After this, the media were replaced, and the cells were incubated in the MTT substrate for 3.5 h at 37 °C. The yellow-orange colored product, a stable soluble formazan, was quantified at 450 nm using a microplate reader. Relative viability was calculated in relation to the cells treated with culture media alone as a control.

[3] = rapid breakdown by angiotensin-converting enzymes; cited from earlier work
From the text: (a) Schematic representation of free Ac-SDKP, a liposome (a lipid bilayer nanoparticle), and L-Ac-SDKP (Ac-SDKP inside the liposome). (b,c) Representative graphs of liposome size distribution and zeta potential, respectively, by nanoparticle tracking analysis. Comparative data for empty liposome (L-PBS) and L-Ac-SDKP for (d) size, (e) polydispersity, and (f) zeta potential. (g), Ac-SDKP concentration in the liposomal formulations (L-PBS vs. L-Ac-SDKP). Cryo-TEM images of L-Ac-SDKP (h) and empty liposome (L-PBS) (i) and a comparative data for size (j). Scale ...

SMILES: CC(=O)N[C@@H](CO)C(=O)N[C@@H](CC(=O)O)C(=O)N[C@@H](CCCCN)C(=O)N1CCC[C@H]1C(=O)O [Ac-SDKP, N-acetyl-ser-asp-lys-pro] (Ac-SDKP-OH)
- percentage of FITC-positive cardiac fibroblasts (uptake) [1]: 8.5% ± 2.96
- percent cell viability, cardiac fibroblasts [2]: did not affect percent cell viability
- plasma half-life [3]: 4.5 min
